# Active and inactive are the calls of the source. The rule behind the calls is not given here.
# Columns and labels:
# Cryptosporidium parvum [1] = assay: Anti-cryptosporidial activity against Cryptosporidium parvum infected in HCT-8 cells pre-infected for 3 hrs followed by compound treatment and measured after 45 hrs by fluorescence microscopy analysis; format: functional, organism-based
# hERG (KCNH2) [2] = target: T1, hERG (KCNH2) (Homo sapiens, UniProt Q12809); assay: Displacement of [3H]-dofetilide from human ERG at 10 uM relative to control; settings: probe [3H]-dofetilide
# Cryptosporidium parvum [3] = assay: Anti-cryptosporidial activity against Cryptosporidium parvum infected in HCT-8 cells assessed as rate of parasite elimination at above EC90 concentration pre-infected for 24 hrs followed by compound treatment; format: functional, organism-based
# [4] = Metabolic stability in human liver microsomes assessed as half life at 2 uM measured up to 30 mins in presence of NADPH by LC-MS/MS analysis; format: ADME, Microsome; settings: for t1/2: microsomes, 0.5 h, 2 µM
# [5] = Kinetic aqueous solubility of the compound in pH 7.4; format: physicochemical; settings: buffer, read-out: Kinetic_solubility
# [6] = Metabolic stability in mouse liver microsomes assessed as half life at 2 uM measured up to 30 mins in presence of NADPH by LC-MS/MS analysis; format: ADME, Microsome; settings: 0.5 h
# [7] = (§1) Efflux ratio of apparent permeability across basolateral to apical side over apical to basolateral side in […] cells at 10 uM after 2 hrs; format: ADME, cell-based; settings: mdckii-mdr1, 2 h, 10 µM
# Cryptosporidium hominis = assay: Anti-cryptosporidial activity against Cryptosporidium hominis infected in HCT-8 cells pre-infected for 3 hrs followed by compound treatment and measured after 45 hrs by fluorescence microscopy analysis; format: functional, organism-based
# HCT-8 = assay: Cytotoxicity against human HCT8 cells assessed as reduction in cell viability after 48 hrs by CellTiter aqueous assay; format: cell-based; settings: hct-8, 48 h
# hERG (KCNH2) [8] = target: T1, hERG (KCNH2); assay: Inhibition of human ERG expressed in CHO cells at 1 uM by automated patch clamp electrophysiology assay relative to control; format: cell-based; settings: CHO cells that express hERG
# hERG (KCNH2) [9] = target: T1, hERG (KCNH2); assay: Inhibition of human ERG expressed in CHO cells at 10 uM by automated patch clamp electrophysiology assay relative to control; format: cell-based; settings: CHO cells that express hERG
# hERG (KCNH2) [10] = target: T1, hERG (KCNH2); assay: Inhibition of human ERG expressed in CHO cells at 100 uM by automated patch clamp electrophysiology assay relative to control; format: cell-based; settings: CHO cells that express hERG
# CYP2C9 = CYP2C9 (Homo sapiens, UniProt P11712); assay: Inhibition of CYP2C9 (unknown origin) at 10 uM relative to control; format: ADME
# CYP2C19 = CYP2C19 (Homo sapiens, UniProt P33261); assay: Inhibition of CYP2C19 (unknown origin) at 10 uM relative to control; format: ADME
# Cryptosporidium parvum [11] = assay: Anti-cryptosporidial activity against Cryptosporidium parvum infected in HCT-8 cells assessed as rate of parasite elimination at 6 times of EC90 concentration pre-infected for 24 hrs followed by compound treatment; format: functional, organism-based
# Cryptosporidium parvum [12] = assay: Anti-cryptosporidial activity against Cryptosporidium parvum infected in HCT-8 cells assessed as rate of parasite elimination at 6 times of EC90 concentration pre-infected for 24 hrs followed by compound treatment measured after 98 hrs; format: functional
# [13] = Protein binding in mouse plasma at 10 uM after 6 hrs by LC-MS/MS based equilibrium dialysis method; format: ADME, cell-free
# [14] = Protein binding in human plasma at 10 uM after 6 hrs by LC-MS/MS based equilibrium dialysis method; format: ADME, cell-free
# [15] = AUC in CD1 mouse plasma at 1 mg/kg, iv measured upto 6 hrs by LC-MS/MS anlaysis; format: ADME, organism-based; set-up: route intravenous, dose 1 mg/kg, time <=6; settings: in vivo
# [16] = AUC in CD1 mouse jejunum at 1 mg/kg, iv measured upto 6 hrs by LC-MS/MS anlaysis; format: ADME, organism-based; set-up: route intravenous, dose 1 mg/kg, time <=6; settings: in vivo
# [17] = AUC in CD1 mouse plasma at 10 mg/kg, po measured upto 24 hrs by LC-MS/MS anlaysis; format: ADME, organism-based; set-up: route oral, dose 10 mg/kg, time <=24; settings: in vivo
# [18] = AUC in CD1 mouse jejunum at 10 mg/kg, po measured upto 24 hrs by LC-MS/MS anlaysis; format: ADME, organism-based; set-up: route oral, dose 10 mg/kg, time <=24; settings: in vivo
# [19] = Cmax in CD1 mouse plasma at 1 mg/kg, iv measured upto 6 hrs by LC-MS/MS anlaysis; format: ADME, organism-based; set-up: route intravenous, dose 1 mg/kg, time <=6; settings: in vivo
# [20] = Cmax in CD1 mouse jejunum at 1 mg/kg, iv measured upto 6 hrs by LC-MS/MS anlaysis; format: ADME, organism-based; set-up: route intravenous, dose 1 mg/kg, time <=6; settings: in vivo
# [21] = Cmax in CD1 mouse plasma at 10 mg/kg, po measured upto 24 hrs by LC-MS/MS anlaysis; format: ADME, organism-based; set-up: route oral, dose 10 mg/kg, time <=24; settings: in vivo
# [22] = Cmax in CD1 mouse jejunum at 10 mg/kg, po measured upto 24 hrs by LC-MS/MS anlaysis; format: ADME, organism-based; set-up: route oral, dose 10 mg/kg, time <=24; settings: in vivo
# [23] = Half life in CD1 mouse plasma at 1 mg/kg, iv measured upto 6 hrs by LC-MS/MS anlaysis; format: ADME, organism-based; settings: in vivo
# [24] = Half life in CD1 mouse jejunum at 1 mg/kg, iv measured upto 6 hrs by LC-MS/MS anlaysis; format: ADME, organism-based; settings: in vivo
# [25] = Volume of distribution in CD1 mouse plasma at 1 mg/kg, iv measured upto 6 hrs by LC-MS/MS anlaysis; format: ADME, organism-based; settings: in vivo
# [26] = Volume of distribution in CD1 mouse jejunum at 1 mg/kg, iv measured upto 6 hrs by LC-MS/MS anlaysis; format: ADME, organism-based; settings: in vivo
# [27] = Oral bioavailability in CD1 mouse jejunum at 10 mg/kg measured upto 24 hrs by LC-MS/MS anlaysis; format: ADME, organism-based; settings: in vivo
# Cryptosporidium parvum [28] = assay: Anti-cryptosporidial activity against Cryptosporidium parvum infected in NSG mouse assessed as reduction in parasite infection at 50 mg/kg, po administered twice daily for 11 days by qPCR analysis; format: functional; set-up: scale not given: the % may be the effect or the level left; settings: time 11 day
# Cryptosporidium parvum [29] = assay: Anti-cryptosporidial activity against Cryptosporidium parvum infected in NSG mouse assessed as reduction in parasite infection at 50 mg/kg, po administered twice daily for 21 days by qPCR analysis; format: functional, organism-based; settings: time 21.0 day
# [30] = target: Voltage-gated inwardly rectifying potassium channel KCNH2 (Homo sapiens, UniProt Q12809); assay: Antagonist activity at human ERG
# hERG (KCNH2) [31] = target: T1, hERG (KCNH2); assay: Antagonist activity at human ERG relative to control
# MDR1 (P-gp) = assay: as §1; format: ADME, cell-based; settings: MDCK-MDR1
# T1 sequence (Q12809 whole entry): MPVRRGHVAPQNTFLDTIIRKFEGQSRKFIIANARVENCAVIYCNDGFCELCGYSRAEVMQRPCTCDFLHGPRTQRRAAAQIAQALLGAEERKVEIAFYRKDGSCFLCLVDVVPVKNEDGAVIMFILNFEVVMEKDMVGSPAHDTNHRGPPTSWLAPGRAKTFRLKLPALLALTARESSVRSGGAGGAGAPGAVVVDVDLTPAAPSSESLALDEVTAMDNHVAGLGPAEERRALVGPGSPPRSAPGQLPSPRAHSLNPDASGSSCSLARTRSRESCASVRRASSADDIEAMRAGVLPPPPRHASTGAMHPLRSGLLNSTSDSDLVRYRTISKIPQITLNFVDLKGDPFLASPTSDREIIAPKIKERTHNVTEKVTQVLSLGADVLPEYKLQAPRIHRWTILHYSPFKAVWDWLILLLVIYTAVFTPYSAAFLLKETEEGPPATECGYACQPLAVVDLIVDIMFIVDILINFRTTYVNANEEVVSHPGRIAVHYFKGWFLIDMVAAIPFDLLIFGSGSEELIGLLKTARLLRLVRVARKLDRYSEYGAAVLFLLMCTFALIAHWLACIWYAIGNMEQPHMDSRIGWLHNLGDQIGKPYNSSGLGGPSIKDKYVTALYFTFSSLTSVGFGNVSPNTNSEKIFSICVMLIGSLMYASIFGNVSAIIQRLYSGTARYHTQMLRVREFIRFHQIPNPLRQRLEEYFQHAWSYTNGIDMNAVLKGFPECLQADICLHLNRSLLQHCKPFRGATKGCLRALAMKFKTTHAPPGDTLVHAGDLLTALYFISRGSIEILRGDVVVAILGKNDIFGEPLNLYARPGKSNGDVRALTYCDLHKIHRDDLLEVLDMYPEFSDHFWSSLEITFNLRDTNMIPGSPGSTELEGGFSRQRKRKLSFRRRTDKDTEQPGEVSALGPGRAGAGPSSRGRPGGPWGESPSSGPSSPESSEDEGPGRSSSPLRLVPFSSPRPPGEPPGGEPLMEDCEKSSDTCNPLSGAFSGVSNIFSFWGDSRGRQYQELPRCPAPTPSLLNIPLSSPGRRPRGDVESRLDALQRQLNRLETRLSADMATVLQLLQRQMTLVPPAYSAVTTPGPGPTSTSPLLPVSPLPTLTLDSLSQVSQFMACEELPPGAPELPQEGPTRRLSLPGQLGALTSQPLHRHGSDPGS
# Voltage-gated inwardly rectifying potassium channel KCNH2, sequence (Q12809 whole entry): as above
# CYP2C19, sequence (P33261 whole entry): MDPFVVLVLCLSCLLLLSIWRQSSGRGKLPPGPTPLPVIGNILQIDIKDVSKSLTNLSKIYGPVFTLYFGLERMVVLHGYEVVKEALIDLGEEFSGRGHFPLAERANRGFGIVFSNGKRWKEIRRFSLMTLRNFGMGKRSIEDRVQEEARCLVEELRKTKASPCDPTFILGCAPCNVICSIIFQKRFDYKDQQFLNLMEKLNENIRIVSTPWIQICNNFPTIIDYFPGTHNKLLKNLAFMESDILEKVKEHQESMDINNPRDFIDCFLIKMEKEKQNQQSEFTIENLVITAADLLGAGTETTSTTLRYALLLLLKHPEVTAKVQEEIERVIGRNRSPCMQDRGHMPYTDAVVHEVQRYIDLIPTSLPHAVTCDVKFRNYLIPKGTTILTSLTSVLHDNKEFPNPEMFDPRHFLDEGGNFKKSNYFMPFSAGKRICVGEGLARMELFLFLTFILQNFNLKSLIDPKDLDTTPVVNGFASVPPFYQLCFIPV
# CYP2C9, sequence (P11712 whole entry): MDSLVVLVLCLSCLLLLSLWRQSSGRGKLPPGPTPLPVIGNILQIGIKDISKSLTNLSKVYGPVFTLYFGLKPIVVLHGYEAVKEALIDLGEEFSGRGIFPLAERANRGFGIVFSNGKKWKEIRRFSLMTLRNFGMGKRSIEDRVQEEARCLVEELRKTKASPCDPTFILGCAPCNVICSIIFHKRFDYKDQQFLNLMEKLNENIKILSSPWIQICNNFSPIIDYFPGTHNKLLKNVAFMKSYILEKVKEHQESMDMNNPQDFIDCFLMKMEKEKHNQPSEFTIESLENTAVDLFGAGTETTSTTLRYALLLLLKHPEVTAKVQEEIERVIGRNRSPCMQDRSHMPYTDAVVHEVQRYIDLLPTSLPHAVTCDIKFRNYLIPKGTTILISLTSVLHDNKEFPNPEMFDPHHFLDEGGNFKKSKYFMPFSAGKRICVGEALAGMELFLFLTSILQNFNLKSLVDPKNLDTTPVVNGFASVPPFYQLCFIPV
structure (smiles),measurement,setting,value
N#Cc1ccc(CC(=O)N2CCN(c3ccc4nncn4n3)CC2)cc1,EC50,Cryptosporidium parvum [1],11 µM
O=C(Cc1ccc2ccccc2c1)N1CCN(c2ccc3nncn3n2)CC1,EC50,Cryptosporidium parvum [1],14 µM
O=C(N1CCN(c2ccc3nncn3n2)CC1)C(F)(F)c1ccc(Cl)c(Cl)c1,EC50,Cryptosporidium parvum [1],2.3 µM
COc1cccc(CC(=O)N2CCN(c3ccc4nncn4n3)CC2)c1,EC50,Cryptosporidium parvum [1],18 µM
O=C(NC1CCN(c2ccc3nncn3n2)CC1)c1ccc(Cl)c(Cl)c1,EC50,Cryptosporidium parvum [1],12 µM
O=C(Cc1ccccc1)N1CCN(c2ccc3nncn3n2)CC1,EC50,Cryptosporidium parvum [1],22 µM
same,inhibition at 10 µM,hERG (KCNH2) [2],4%
CC(=O)Oc1ccccc1C(=O)Nc1ncc([N+](=O)[O-])s1 [NITAZOXANIDE],EC50,Cryptosporidium parvum [1],2 µM
same,Activity,Cryptosporidium parvum [3],Active
O=C(Cc1ccc(Cl)c(Cl)c1)N1CCCN(c2ccc3nncn3n2)CC1,EC50,Cryptosporidium parvum [1],12 µM
O=S(=O)(Cc1ccc(Cl)c(Cl)c1)N1CCN(c2ccc3nncn3n2)CC1,EC50,Cryptosporidium parvum [1],> 25 µM
O=C(Cc1ccc(Cl)c(Cl)c1)N1CCC(Nc2ccc3nncn3n2)CC1,EC50,Cryptosporidium parvum [1],> 25 µM
O=C(Cc1ccc(Cl)cc1)N1CCN(c2ccc3nncn3n2)CC1,t1/2,[4],> 30 min
same,solubility kinetic,[5],10 µM
same,t1/2,[6],> 30 min
same,EC50,Cryptosporidium parvum [1],0.66 µM
same,inhibition at 10 µM,hERG (KCNH2) [2],2%
same,Ratio,[7],3
O=C(Cc1cccc2ccccc12)N1CCN(c2ccc3nncn3n2)CC1,EC50,Cryptosporidium parvum [1],17.1 µM
O=C(Nc1ccc(Cl)cc1)N1CCN(c2ccc3nncn3n2)CC1,t1/2,[4],> 30 min
same,solubility kinetic,[5],200 µM
same,t1/2,[6],> 30 min
same,EC50,Cryptosporidium parvum [1],2.1 µM
same,EC50,Cryptosporidium hominis,6 µM
same,CC50,HCT-8,> 100 µM
same,inhibition at 10 µM,hERG (KCNH2) [2],8%
same,inhibition at 1 µM,hERG (KCNH2) [8],12%
same,inhibition at 10 µM,hERG (KCNH2) [9],48%
same,inhibition at 100 µM,hERG (KCNH2) [10],88%
same,Ratio,[7],8.9
O=C(Cc1ccc(Cl)c(Cl)c1)NC1CCN(c2ccc3nncn3n2)CC1,EC50,Cryptosporidium parvum [1],> 25 µM
O=C(Nc1ccc(Cl)c(Cl)c1)N1CCCN(c2ccc3nncn3n2)CC1,EC50,Cryptosporidium parvum [1],> 25 µM
O=C(Cc1ccc(Cl)c(Cl)c1)N1CCC(c2ccc3nncn3n2)CC1,t1/2,[4],7.8 min
same,EC50,Cryptosporidium parvum [1],11 µM
same,Ratio,[7],9.8
O=C(Cc1ccc(F)cc1)N1CCN(c2ccc3nncn3n2)CC1,EC50,Cryptosporidium parvum [1],0.86 µM
O=C(Nc1ccc(Cl)c(Cl)c1)N1CCC(c2ccc3nncn3n2)CC1,t1/2,[4],> 30 min
same,EC50,Cryptosporidium parvum [1],7 µM
same,Ratio,[7],6.6
O=C(Cc1ccc(Cl)c(Cl)c1)N1CCN(c2ccc3nncn3n2)CC1,inhibition at 10 µM,CYP2C9,31%
same,inhibition at 10 µM,CYP2C19,44%
same,t1/2,[4],> 30 min
same,solubility kinetic,[5],18 µM
same,t1/2,[6],> 30 min
same,Activity,Cryptosporidium parvum [11],Active
same,Activity,Cryptosporidium parvum [12],99.9%
same,CC50,HCT-8,> 100 µM
same,inhibition at 10 µM,hERG (KCNH2) [2],11%
same,inhibition at 1 µM,hERG (KCNH2) [8],19%
same,inhibition at 10 µM,hERG (KCNH2) [9],67%
same,inhibition at 100 µM,hERG (KCNH2) [10],94%
same,PPB,[13],92.4%
same,PPB,[14],97.8%
same,AUC,[15],50000 ng·h/mL
same,AUC,[16],55000 ng·h/mL
same,AUC,[17],5200 ng·h/mL
same,AUC,[18],240000 ng·h/mL
same,Cmax,[19],17000 ng/mL
same,Cmax,[20],15000 ng/mL
same,Cmax,[21],1500 ng/mL
same,Cmax,[22],36000 ng/mL
same,t1/2,[23],132 min
same,t1/2,[24],324 min
same,Vd,[25],0.062 L/kg
same,Vd,[26],0.13 L/kg
same,F,[27],1%
same,Activity,Cryptosporidium parvum [28],>99%
same,Activity,Cryptosporidium parvum [29],Active
same,EC50,[30],7.7 µM
same,Emax,hERG (KCNH2) [31],79%
O=C(Cc1cccc(Cl)c1)N1CCN(c2ccc3nncn3n2)CC1,EC50,Cryptosporidium parvum [1],3.5 µM
O=C(C(=O)N1CCN(c2ccc3nncn3n2)CC1)c1ccc(Cl)c(Cl)c1,EC50,Cryptosporidium parvum [1],2.2 µM
COc1ccc(CC(=O)N2CCN(c3ccc4nncn4n3)CC2)cc1,EC50,Cryptosporidium parvum [1],17 µM
O=C(N1CCN(c2ccc3nncn3n2)CC1)C1(c2ccc(Cl)c(Cl)c2)CC1,EC50,Cryptosporidium parvum [1],8.5 µM
O=C(Nc1ccc(Cl)c(Cl)c1)N1CCN(c2ccc3nncn3n2)CC1,t1/2,[4],> 30 min
same,solubility kinetic,[5],1.8 µM
same,t1/2,[6],> 30 min
same,EC50,Cryptosporidium parvum [1],0.55 µM
same,EC50,Cryptosporidium hominis,0.56 µM
same,Activity,Cryptosporidium parvum [11],Active
same,CC50,HCT-8,> 100 µM
same,inhibition at 10 µM,hERG (KCNH2) [2],56%
same,inhibition at 1 µM,hERG (KCNH2) [8],41%
same,inhibition at 10 µM,hERG (KCNH2) [9],87%
same,inhibition at 100 µM,hERG (KCNH2) [10],94%
same,Ratio,[7],12
CN(C(=O)N1CCN(c2ccc3nncn3n2)CC1)c1ccc(Cl)c(Cl)c1,EC50,Cryptosporidium parvum [1],29 µM
O=C(Cc1ccc([N+](=O)[O-])cc1)N1CCN(c2ccc3nncn3n2)CC1,EC50,Cryptosporidium parvum [1],2.5 µM
CC1CN(c2ccc3nncn3n2)CCN1C(=O)Cc1ccc(Cl)c(Cl)c1 (stereo not drawn),EC50,Cryptosporidium parvum [1],7.1 µM
O=C(Nc1ccc(Cl)c(Cl)c1)N1CC=C(c2ccc3nncn3n2)CC1,half-life at 2 µM,[4]; liver microsomes,> 30 min
same,solubility kinetic,[5],59 µM
same,EC50,Cryptosporidium parvum [1],0.61 µM
same,inhibition at 10 µM,hERG (KCNH2) [2],56%
same,"efflux ratio at 2 h, 10 µM",MDR1 (P-gp),6.5
O=C(c1ccc(Cl)c(Cl)c1)N1CCN(c2ccc3nncn3n2)CC1,EC50,Cryptosporidium parvum [1],> 25 µM
O=C(Cc1ccc(Cl)c(Cl)c1)N1CC=C(c2ccc3nncn3n2)CC1,EC50,Cryptosporidium parvum [1],16 µM
same,inhibition at 10 µM,hERG (KCNH2) [2],9%
CC1CN(c2ccc3nncn3n2)CCN1C(=O)Nc1ccc(Cl)c(Cl)c1 (stereo not drawn),EC50,Cryptosporidium parvum [1],32 µM

# — ChEMBL document CHEMBL4808226, “Optimization of the Urea Linker of Triazolopyridazine MMV665917 Results in a New Anticryptosporidial Lead with Improved Potency and Predicted hERG Safety Margin” (J Med Chem, 2021)
